Laboratory results taken from US10173968B2, “Bishydrazone-based antifungal agents” (University of Kentucky Research Foundation, priority 2016, dated 2019).

Columns and labels:
[1] = tested on: all bacterial strains tested; assay: Antibacterial MIC, summary over the panel; type: cell-based; conditions: read-out: antibacterial MIC values
Description: MIC values were determined against a variety of Gram-positive (strains A-D) and Gram-negative (E-J) bacterial and mycobacterial (K) strains using the double-dilution method, as previously published. Preliminary screening was performed using 500 μM of each compound.

[2] = tested on: C. albicans strains (panel of seven); assay: Antifungal MIC, summary over the panel; type: cell-based, Candida albicans; conditions: for antifungal activity in words: against all fungal strains tested
How it was run: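 MIC endpoints were read by eye and taken as the minimum compound concentration producing complete inhibition compared with untreated growth. Testing followed the CLSI M27-A3 yeast microdilution standard, slightly modified.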

[3] = tested on: L. monocytogenes ATCC 19115 (strain B); type: cell-based, Listeria monocytogenes; conditions: up to 15 passages
Description: (§1) The bacteria were grown in MH broth at 37° C. for these experiments. […] The resulting cultures were diluted 1:1000 and grown until the culture reached ˜300,000 cfu/mL. That culture was then further diluted 1:1000 and used to determine the next round of MIC values.

MRSA (strain C) = type: cell-based, Staphylococcus aureus; conditions: up to 15 passages
Description: as §1

VRE (strain D) = type: cell-based, enterococcus; conditions: up to 15 passages
Description: as §1

[4] = tested on: P. aeruginosa ATCC 27853 (strain I); type: cell-based; conditions: up to 15 passages
Description: as §1

C. albicans ATCC 10231 [5] = type: cell-based, Candida albicans; conditions: repeated treatments with sub-MIC drug concentrations
C. albicans ATCC 10231 [6] = assay: Intracellular ROS production, DCFH-DA fluorescence assay; type: cell-based, Candida albicans; conditions: at 1× and 2× MIC values, 1 h at 35° C.
Description: We used the 2′,7′-dichlorodihydrofluorescein diacetate (DCFH-DA) dye as a probe to measure the production of ROS in yeast cells upon treatment with our compounds. DCFH-DA can easily cross the cell membranes and be hydrolyzed by cellular esterases to the non-fluorescent 2′,7′-dichlorodihydrofluorescein (DCFH), which can further be oxidized to the highly fluorescent 2′,7′-dichlorofluorescein (DCF) by the intracellular ROS. Five mL of RPMI 1640 medium were inoculated using a single colony of C. albicans ATCC 10231 (strain A) in a Falcon tube and grown overnight at 35° C. at 200 rpm. The overnight culture was diluted by adding 200 μL of yeast cells to 800 μL of the same medium. […] H2O2 at 1 mM was also used as a positive control. Cells were centrifuged and washed twice with PBS buffer (pH 7.2). Cells were resuspended in the same buffer and incubated with DCFH-DA (20 μg/mL) for 30 min in the dark. Afterwards, cells were centrifuged and washed with PBS buffer to remove excess DCFH-DA. Glass slides with 10-15 μL of each mixture were prepared and observed in bright field and fluorescence modes (FITC filter set, excitation and emission wavelengths of 488 and 512 nm, respectively) using a Zeiss Axovert 200M fluorescence microscope (FIG. 3).

hERG channel = hERG channel (Homo sapiens, UniProt Q12809); assay: in vitro; conditions: pH 7.4
Description: Assays were conducted in duplicate, and three independent assays were performed for each compound that was evaluated. Cell membrane suspension (5 μg) was added to duplicate tubes containing assay buffer (50 mM Tris, 10 mM KCl, and 1 mM MgCl2, pH 7.4), 25 μL of a single concentration of analogue (a concentration range of 10 nM-100 μM was employed for each experiment), and 25 μL of [^3H]dofetilide (5 nM, final concentration) for an assay volume of 250 μL. Nonspecific binding was assessed in the presence of 1 mM amitriptyline. Binding occurred for 60 min at 25° C. and was terminated by rapid filtration through Whatman GF/B filters, which were pre-soaked in 0.5% PEI for 2 h. Filters were washed three times with ˜1 mL of ice-cold assay buffer. Radioactivity retained by the filters was determined by liquid scintillation counting by using a Tri-Carb 2100TR liquid scintillation analyzer (PerkinElmer Life and Analytical Sciences, Boston, Mass.).

hERG channel, sequence (Q12809 whole entry): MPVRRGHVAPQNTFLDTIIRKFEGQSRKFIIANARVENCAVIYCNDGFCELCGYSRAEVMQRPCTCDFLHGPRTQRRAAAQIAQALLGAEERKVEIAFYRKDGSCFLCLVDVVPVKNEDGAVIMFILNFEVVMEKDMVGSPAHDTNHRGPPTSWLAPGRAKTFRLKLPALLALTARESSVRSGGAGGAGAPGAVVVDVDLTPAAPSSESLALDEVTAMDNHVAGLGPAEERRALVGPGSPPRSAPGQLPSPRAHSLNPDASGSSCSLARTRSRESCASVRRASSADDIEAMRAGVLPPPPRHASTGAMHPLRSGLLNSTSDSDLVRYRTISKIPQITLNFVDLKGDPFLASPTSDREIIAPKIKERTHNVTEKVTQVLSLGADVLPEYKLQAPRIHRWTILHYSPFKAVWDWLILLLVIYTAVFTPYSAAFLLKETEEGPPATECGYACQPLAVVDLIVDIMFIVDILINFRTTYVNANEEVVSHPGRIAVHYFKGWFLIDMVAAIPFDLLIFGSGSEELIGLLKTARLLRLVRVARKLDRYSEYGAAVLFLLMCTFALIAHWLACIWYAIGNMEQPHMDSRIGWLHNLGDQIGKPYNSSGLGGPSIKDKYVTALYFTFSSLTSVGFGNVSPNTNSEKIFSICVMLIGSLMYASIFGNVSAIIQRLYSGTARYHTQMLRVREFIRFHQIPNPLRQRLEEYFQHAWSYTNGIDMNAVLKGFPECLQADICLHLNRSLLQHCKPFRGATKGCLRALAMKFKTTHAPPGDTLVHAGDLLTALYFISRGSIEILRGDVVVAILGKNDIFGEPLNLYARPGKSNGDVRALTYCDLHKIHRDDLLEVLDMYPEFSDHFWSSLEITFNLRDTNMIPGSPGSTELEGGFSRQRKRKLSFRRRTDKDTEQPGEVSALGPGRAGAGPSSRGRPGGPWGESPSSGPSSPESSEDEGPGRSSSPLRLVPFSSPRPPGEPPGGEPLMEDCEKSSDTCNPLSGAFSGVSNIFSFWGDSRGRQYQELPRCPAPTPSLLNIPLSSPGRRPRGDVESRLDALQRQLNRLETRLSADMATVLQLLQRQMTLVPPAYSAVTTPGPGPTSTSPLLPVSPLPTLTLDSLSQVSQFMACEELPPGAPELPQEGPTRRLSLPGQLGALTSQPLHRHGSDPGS

Row | Structure (SMILES) | MIC [1] [µg/mL] | antifungal activity in words [2] | MIC ([2]; Candida albicans, all, most or majority of the fungal strains, read-out: MIC, span over C. albicans strains) [µg/mL] | melting point [°C] | development of resistance (passages after which resistance developed) [3] | development of resistance (passages after which resistance developed) (MRSA (strain C)) | development of resistance (passages after which resistance developed) (VRE (strain D)) | development of resistance (passages after which resistance developed) [4] | development of drug resistance (C. albicans ATCC 10231 [5]) | intracellular ROS production (C. albicans ATCC 10231 [6]) | IC50 at 60 min (hERG channel) [nM]
1 | Cl.Cl.N=C(N)N/N=C/c1ccc(-c2cccc(/C=N/NC(=N)N)c2)cc1 [Compound 3B, (2E,2′E)-2,2′-([1,1′-Biphenyl]-3,4′-diylbis(methanylylidene))bis(hydrazine-1-carboximidamide) dihydrochloride] | 0.4 to 3.3 | excellent antifungal activities | – | – | – | – | – | – | – | – | –
2 | Cl.N=C(N)N/N=C/c1ccc(-c2ccc(/C=N/Nc3ccc(Cl)cc3)cc2)cc1 [Compound 7Ad, (E)-2-((4′-((E)-(2-(4-Chlorophenyl)hydrazono)methyl)-[1,1′-biphenyl]-4-yl)methylene)hydrazine-1-carboximidamide monohydrochloride] | 0.4 to 3.3 | – | 7.8 to 15.6 | > 380 | – | – | – | – | – | – | –
3 | Cl.N=C(N)N/N=C/c1ccc(-c2ccc(/C=N/Nc3ccc(F)cc3F)cc2)cc1 [Compound 7Af, (E)-2-((4′-((E)-(2-(2,4-Difluorophenyl)hydrazono)methyl)-[1,1′-biphenyl]-4-yl)methylene) hydrazine-1-carboximidamide, monohydrochloride] | 0.4 to 3.3 | excellent antifungal activities | – | > 380 | – | – | – | – | – | – | –
4 | Cl.N=C(N)N/N=C/c1ccc(-c2ccc(C=NNc3ccccc3Cl)cc2)cc1 (mixture of isomers) [Compound 7Aa, E)-2-((4′-((E and Z)-(2-(2-Chlorophenyl)hydrazono)methyl)-[1,1′-biphenyl]-4-yl)methylene)hydrazine-1-carboximidamide monohydrochloride] | – | excellent antifungal activities | – | – | did not develop resistance | twelve | did not develop resistance | twelve | unable to develop drug resistance | significantly increased intracellular ROS production | 1140 ± 267
